# Assay results: PubChem BioAssay (NCI)
#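 1) Cells in 96-well plates. 2) Compound, 48 h, 5 concentrations. 3) Linear interpolation between surrounding doses. 4) Unreached endpoint = highest concentration. Definition used: TGI = concentration required for complete inhibition of growth.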
# Key:
# Experiment in all cases: inhibition of tumour cell growth, NCI panel, 48 h
# K-562 leukemia = test system: K-562 leukemia
# HCT-15 colon = test system: HCT-15 colon
# MOLT-4 leukemia = test system: MOLT-4 leukemia
# EKVX NSCLC = test system: EKVX NSCLC
# ACHN renal = test system: ACHN renal
# HS 578T breast = test system: HS 578T breast
# HL-60(TB) leukemia = test system: HL-60(TB) leukemia
# LOX IMVI melanoma = test system: LOX IMVI melanoma
# OVCAR-3 ovarian = test system: OVCAR-3 ovarian
# OVCAR-4 ovarian = test system: OVCAR-4 ovarian
# PC-3 prostate = test system: PC-3 prostate
# SK-MEL-2 melanoma = test system: SK-MEL-2 melanoma
# M14 melanoma = test system: M14 melanoma
# COLO 205 colon = test system: COLO 205 colon
# SF-295 CNS = test system: SF-295 CNS
# U251 CNS = test system: U251 CNS
# IGROV1 ovarian = test system: IGROV1 ovarian
# CCRF-CEM leukemia = test system: CCRF-CEM leukemia
# SNB-19 CNS = test system: SNB-19 CNS
# SN12C renal = test system: SN12C renal
# SNB-75 CNS = test system: SNB-75 CNS
# NCI-H23 lung = test system: NCI-H23 lung
# DU-145 prostate = test system: DU-145 prostate
# NCI/ADR-RES ovarian = test system: NCI/ADR-RES ovarian
# MDA-MB-231 breast = test system: MDA-MB-231 breast
# UACC-62 melanoma = test system: UACC-62 melanoma
# OVCAR-5 ovarian = test system: OVCAR-5 ovarian
# UO-31 renal = test system: UO-31 renal
# A498 renal = test system: A498 renal
# MDA-MB-435 = test system: MDA-MB-435
# BT-549 breast = test system: BT-549 breast
# MDA-N = test system: MDA-N
# SW-620 colon = test system: SW-620 colon
# 786-0 renal = test system: 786-0 renal
# HCT-116 colon = test system: HCT-116 colon
# SK-MEL-28 melanoma = test system: SK-MEL-28 melanoma
# NCI-H460 lung = test system: NCI-H460 lung
# KM12 colon = test system: KM12 colon
# NCI-H522 lung = test system: NCI-H522 lung
# HT29 colon = test system: HT29 colon
# RPMI-8226 leukemia = test system: RPMI-8226 leukemia
# HOP-92 NSCLC = test system: HOP-92 NSCLC
# SR leukemia = test system: SR leukemia
# MCF7 breast = test system: MCF7 breast
# HOP-62 NSCLC = test system: HOP-62 NSCLC
# SF-268 CNS = test system: SF-268 CNS
# CAKI-1 renal = test system: CAKI-1 renal
# TK-10 renal = test system: TK-10 renal
# NCI-H226 lung = test system: NCI-H226 lung
# OVCAR-8 ovarian = test system: OVCAR-8 ovarian
# SF-539 CNS = test system: SF-539 CNS
# SK-OV-3 ovarian = test system: SK-OV-3 ovarian
# UACC-257 melanoma = test system: UACC-257 melanoma
# SK-MEL-5 melanoma = test system: SK-MEL-5 melanoma
# A549 NSCLC = test system: A549 NSCLC
# T-47D breast = test system: T-47D breast
# MALME-3M melanoma = test system: MALME-3M melanoma
# RXF 393 renal = test system: RXF 393 renal
structure (smiles),measurement,setting,value
Oc1c(CN2CCOCC2)ccc(CN2CCOCC2)c1O,TGI,K-562 leukemia,> 100 µM
same,TGI,HCT-15 colon,> 100 µM
same,TGI,MOLT-4 leukemia,> 100 µM
same,TGI,EKVX NSCLC,> 100 µM
same,TGI,ACHN renal,> 100 µM
same,TGI,HS 578T breast,> 100 µM
same,TGI,HL-60(TB) leukemia,27.2 µM
same,TGI,LOX IMVI melanoma,> 100 µM
same,TGI,OVCAR-3 ovarian,66.3 µM
same,TGI,OVCAR-4 ovarian,> 100 µM
same,TGI,PC-3 prostate,> 100 µM
same,TGI,SK-MEL-2 melanoma,94.6 µM
same,TGI,M14 melanoma,84 µM
same,TGI,COLO 205 colon,> 100 µM
same,TGI,SF-295 CNS,96.3 µM
same,TGI,U251 CNS,> 100 µM
same,TGI,IGROV1 ovarian,> 100 µM
same,TGI,CCRF-CEM leukemia,12.9 µM
same,TGI,SNB-19 CNS,> 100 µM
same,TGI,SN12C renal,88.4 µM
same,TGI,SNB-75 CNS,75.3 µM
same,TGI,NCI-H23 lung,> 100 µM
same,TGI,DU-145 prostate,83 µM
same,TGI,NCI/ADR-RES ovarian,> 100 µM
same,TGI,MDA-MB-231 breast,> 100 µM
same,TGI,UACC-62 melanoma,61.2 µM
same,TGI,OVCAR-5 ovarian,> 100 µM
same,TGI,UO-31 renal,72.2 µM
same,TGI,A498 renal,> 100 µM
same,TGI,MDA-MB-435,> 100 µM
same,TGI,BT-549 breast,> 100 µM
same,TGI,MDA-N,> 100 µM
same,TGI,SW-620 colon,> 100 µM
same,TGI,786-0 renal,> 100 µM
same,TGI,HCT-116 colon,> 100 µM
same,TGI,SK-MEL-28 melanoma,> 100 µM
same,TGI,NCI-H460 lung,82.8 µM
same,TGI,KM12 colon,> 100 µM
same,TGI,NCI-H522 lung,> 100 µM
same,TGI,HT29 colon,> 100 µM
same,TGI,RPMI-8226 leukemia,> 100 µM
same,TGI,HOP-92 NSCLC,> 100 µM
same,TGI,SR leukemia,> 100 µM
same,TGI,MCF7 breast,> 100 µM
same,TGI,HOP-62 NSCLC,> 100 µM
same,TGI,SF-268 CNS,> 100 µM
same,TGI,CAKI-1 renal,> 100 µM
same,TGI,TK-10 renal,> 100 µM
same,TGI,NCI-H226 lung,88.9 µM
same,TGI,OVCAR-8 ovarian,> 100 µM
same,TGI,SF-539 CNS,> 100 µM
same,TGI,SK-OV-3 ovarian,> 100 µM
same,TGI,UACC-257 melanoma,88.7 µM
same,TGI,SK-MEL-5 melanoma,67 µM
same,TGI,A549 NSCLC,> 100 µM
same,TGI,T-47D breast,> 100 µM
same,TGI,MALME-3M melanoma,> 100 µM
same,TGI,RXF 393 renal,> 100 µM
NC(=S)N/N=C/c1c[nH]c2ccccc12,TGI,K-562 leukemia,> 100 µM
same,TGI,HCT-15 colon,> 100 µM
same,TGI,MOLT-4 leukemia,> 100 µM
same,TGI,EKVX NSCLC,> 100 µM
same,TGI,ACHN renal,> 100 µM
same,TGI,HS 578T breast,> 100 µM
same,TGI,HL-60(TB) leukemia,> 100 µM
same,TGI,LOX IMVI melanoma,> 100 µM
same,TGI,OVCAR-3 ovarian,> 100 µM
same,TGI,OVCAR-4 ovarian,> 100 µM
same,TGI,PC-3 prostate,> 100 µM
same,TGI,SK-MEL-2 melanoma,> 100 µM
same,TGI,M14 melanoma,> 100 µM
same,TGI,COLO 205 colon,> 100 µM
same,TGI,SF-295 CNS,> 100 µM
same,TGI,U251 CNS,> 100 µM
same,TGI,IGROV1 ovarian,> 100 µM
same,TGI,CCRF-CEM leukemia,> 100 µM
same,TGI,SNB-19 CNS,> 100 µM
same,TGI,SN12C renal,> 100 µM
same,TGI,SNB-75 CNS,> 100 µM
same,TGI,NCI-H23 lung,> 100 µM
same,TGI,DU-145 prostate,> 100 µM
same,TGI,NCI/ADR-RES ovarian,> 100 µM
same,TGI,MDA-MB-231 breast,> 100 µM
same,TGI,UACC-62 melanoma,> 100 µM
same,TGI,OVCAR-5 ovarian,> 100 µM
same,TGI,UO-31 renal,> 100 µM
same,TGI,A498 renal,> 100 µM
same,TGI,MDA-MB-435,> 100 µM
same,TGI,BT-549 breast,> 100 µM
same,TGI,MDA-N,> 100 µM
same,TGI,SW-620 colon,> 100 µM
same,TGI,786-0 renal,> 100 µM
same,TGI,HCT-116 colon,> 100 µM
same,TGI,SK-MEL-28 melanoma,> 100 µM
same,TGI,NCI-H460 lung,> 100 µM
same,TGI,KM12 colon,> 100 µM
same,TGI,NCI-H522 lung,> 100 µM
same,TGI,HT29 colon,> 100 µM
same,TGI,RPMI-8226 leukemia,> 100 µM
same,TGI,HOP-92 NSCLC,> 100 µM
same,TGI,SR leukemia,> 100 µM
same,TGI,MCF7 breast,> 100 µM
same,TGI,HOP-62 NSCLC,> 100 µM
same,TGI,SF-268 CNS,> 100 µM
same,TGI,CAKI-1 renal,> 100 µM
same,TGI,TK-10 renal,> 100 µM
same,TGI,NCI-H226 lung,> 100 µM
same,TGI,OVCAR-8 ovarian,> 100 µM
same,TGI,SF-539 CNS,> 100 µM
same,TGI,SK-OV-3 ovarian,> 100 µM
same,TGI,UACC-257 melanoma,> 100 µM
same,TGI,SK-MEL-5 melanoma,> 100 µM
same,TGI,A549 NSCLC,> 100 µM
same,TGI,T-47D breast,> 100 µM
same,TGI,MALME-3M melanoma,> 100 µM
same,TGI,RXF 393 renal,> 100 µM
